Results taken from patent US8318708B2, “Use of vitamin D receptor agonists, ligands, and precursors to treat pancreatic fibrosis” (Salk Institute for Biological Studies, priority 2007, dated 2012).
“Also recorded” adds a separate entry of the source. Read-outs that look alike come from different tables or passages of the source.

Key:
[1] = system: primary HSCs; assay: Illumina array: LPS-treated primary rat HSCs with vitamin D3 or LXR ligand T1317 (Table 3); conditions: co-treatment with LPS; T1317 1 μM, vitamin D3 1 nM
Experimental: (§2) For Illumina microarray analysis, Illumina TotalPrep RNA Amplification Kit (Ambion; Catalog # IL1791) was used with the manufacturer's instructions for the RNA amplification. […] Essentially, biotinylated cRNA was prepared according to the manufacturer's directions starting with 200 ng total RNA. Hybridization to the Illumina Sentrix RatRef-12 v.1 and Mouse RefSeq version 2 Expression BeadChips (Illumina, Inc., San Diego, Calif.), washing and scanning were performed according to the Illumina BeadStation 500× manual (revision C). […] RNA is isolated using Trizol and the quality/integrity of the total RNA verified using a Bioanalyzer (Agilent).
(§3) Microarray experiments were repeated two times with RNA from two experiments where HSCs were isolated from two different rats and for each condition triplicate samples were used. The “Detection Score” was used to determine expression using the Illumina platform. It is a statistical measure in the BeadStudio software (version 1.5.0.34), which is computed based on the Z-value of a gene relative to the Z-value of the negative controls. The Illumina data were adjusted (“normalized”) using a cubic spline function. […] The expression difference score, DiffScore, takes into account background noise and sample variability. […] Illumina expression arrays utilize gene-specific 50-mer oligonucleotide probes with an average of 30 replicates of each probe bead per individual array.
Isolated primary HSCs were cultured on plastic tissue culture plates for 40 hours prior to treatment with or without vitamin D3 (1 nM) in the presence or absence of 15 ng/ml of LPS for 24 hours. Cells were then harvested, total RNA extracted, and biotin labeled cRNA was prepared for hybridization to Illumina Rat RefSeq version 1 expression arrays. […] The data generated from these arrays was processed using Illumina BeadStudio software to identify gene expression changes between the different samples.

[2] = target: T1, VDR (Rattus norvegicus, UniProt P13053); conditions: rat SECs, FIG. 11A
T1 sequence (P13053 1-423): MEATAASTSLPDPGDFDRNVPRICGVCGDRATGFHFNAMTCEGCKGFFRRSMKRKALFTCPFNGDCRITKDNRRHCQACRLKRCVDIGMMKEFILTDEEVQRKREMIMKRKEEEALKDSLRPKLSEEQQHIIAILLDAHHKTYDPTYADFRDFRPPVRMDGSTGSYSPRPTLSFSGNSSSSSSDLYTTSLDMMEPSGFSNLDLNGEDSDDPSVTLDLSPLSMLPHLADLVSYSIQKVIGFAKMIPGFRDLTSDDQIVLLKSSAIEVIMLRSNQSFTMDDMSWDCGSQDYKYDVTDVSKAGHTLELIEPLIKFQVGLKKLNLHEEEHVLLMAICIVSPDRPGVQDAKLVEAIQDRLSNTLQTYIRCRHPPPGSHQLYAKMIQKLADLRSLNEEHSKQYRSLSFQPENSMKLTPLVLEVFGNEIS

[3] = target: T1, VDR; assay: Real-time qPCR of VDR target and vitamin D metabolising genes in primary rat HSCs; assay type: cell-based; design: endogenous in cells; host or cells: primary rat hepatic stellate cells (Sprague-Dawley rats)
Experimental: Activated HSCs were cultured on plastic rather than Matrigel in the same media described above. Kupffer cells (KCs) were cultured in Williams' medium E containing 10% FBS, 2 mM glutamine on plastic plates.
(§1) For qRT-PCR, 500 ng of deoxyribonuclease-treated total RNA was reverse transcribed into cDNA using SuperScript™ III reverse transcriptase essentially as described by the manufacturer (Invitrogen). Quantification of gene of interest mRNA was performed using a Rotor-Gene, RG 6000 (Corbett Research). […] Human B2M primers were from Applied Biosystems.

[4] = system: MCD diet model of NASH; assay: Methionine and choline deficient (MCD) diet model of NASH; assay type: in vivo, mouse; conditions: mice on MCD diet, 1 IU (25 ng) per gram body weight twice weekly
From the text: The methionine and choline deficient (MCD) diet model of nonalcoholic steatohepatitis (NASH) was originally developed in the mid 1990's to provide a suitable animal model to study the pathogenesis of this common human disease (Weltman et al., 1996. Gastroenterology., 111(6):1645-53). It faithfully reproduces the hepatic steatosis, lobular inflammation and fibrosis progressing over time to more severe fibrosis as observed in the human condition. The mouse version of this model has previously been well characterized and reproducibly mice develop hepatic steatosis, inflammation and extensive perivenular and pericellular fibrosis by 10 weeks.
Male C57black wild-type and the VDR floxed knockout mice are fed ad libitum a high fat, MCD diet (ICN cat no: 960439) for up to 10 weeks. Controls are pair-fed the same diet supplemented with choline chloride (2 g/kg) and DL-methionine (3 g/kg). […]. […] Fibrosis is determined by Sirius Red staining of liver samples. Serum transaminases, lipids and bile acids and liver bile acids are quantified as previously published (Stedman et al., 2006. Proc Natl Acad Sci USA., 103(30):11323-8) and hepatic lipids, glutathione and lipid peroxidation also are analyzed using standard published protocols. Additional tissue portions are snap frozen in liquid nitrogen for later preparation of total RNA for gene expression studies by quantitative PCR and gene arrays.

[5] = system: CCl4-induced liver fibrosis; assay: CCl4-induced liver fibrosis model; assay type: in vivo, mouse
From the text: . The CCl4 model of chronic liver injury and fibrosis is a well established model of liver injury, inflammation, fibrosis and cirrhosis where CCL4 is metabolized in the liver by CYP2E to a trichloromethyl free radical, which reacts with oxygen to produces a highly reactive peroxytrichloromethyl radical that initiates a damaging cycle of lipid membrane peroxidation and cell death (Leclercq et al., 2001. J. Gastroenterology and Hepatol., 24:51-59). With iterative injury (3 months in mice), extensive scarring develops as indicated by transdifferentiation of HSCs into myofibroblasts, intense myofibroblast proliferation and progressive laying down of ECM components. Following cessation of CCl4 injections, the scarring resolves completely (Kanzler et al., 1999. Am J Physiol., 276(4 Pt 1):G1059-68). These distinct phases of injury, repair, and resolution make this an ideal model for studying both injury and repair mechanisms.
Eight week-old C57BL6 mice were injected with 2 ml/kg body weight of CCl4 i.p. (1:1 v/v in corn oil) or vehicle alone twice weekly for 4 to 12 weeks. Specifically, groups of mice (n=8 per group per time point) are sacrificed at 48 hours (acute injury), 4, 8 and 12 weeks. The animals were terminated after a period of 72 hours after the final CCl4 injection and whole liver, intestine and serum were collected for histological, cytological, biochemical and molecular analyses. […]. Control mice received vehicle alone.
Twice weekly administration of CCl4 for […] caused sustained hepatocyte damage as evidenced by significant increases in serum ALT levels and marked histological changes in liver sections stained with hematoxylin and eosin. Serum ALT, AST and triglyceride (TG) and hepatic lipid peroxides (by TBARs) and TG were measured biochemically. Liver histology was scored blindly by a histopathologist using the Brunt system to determine levels of steatosis and inflammation. Expression levels of key genes involved in BA (Sult2a1) and cholesterol metabolism, transport (Bsep, Ntcp, Mdr1&2, Mrp2&3, Oatp1, 2&4), and synthesis (Srebp2, Cyp7a1) and the NXRs (Lxr, Car, Pxr & Fxr) regulating these genes were determined by real-time quantitative PCR (QPCR) with results normalized to […] (B2M). Protein expression was examined in a select number of genes by Western blotting. Statistical analysis was completed on SPSS v14 using Kruschal Wallis H and Mann-Whitney U tests with p<0.05 considered significant

[6] = target: T2, VDR (Homo sapiens, UniProt P11473); assay: Real-time qPCR of CYP24A1 in human LX-2 cell line; assay type: cell-based
T2 construct: endogenous in cells; host or cells: human LX-2 hepatic stellate cell line
T2 sequence (P11473 1-427): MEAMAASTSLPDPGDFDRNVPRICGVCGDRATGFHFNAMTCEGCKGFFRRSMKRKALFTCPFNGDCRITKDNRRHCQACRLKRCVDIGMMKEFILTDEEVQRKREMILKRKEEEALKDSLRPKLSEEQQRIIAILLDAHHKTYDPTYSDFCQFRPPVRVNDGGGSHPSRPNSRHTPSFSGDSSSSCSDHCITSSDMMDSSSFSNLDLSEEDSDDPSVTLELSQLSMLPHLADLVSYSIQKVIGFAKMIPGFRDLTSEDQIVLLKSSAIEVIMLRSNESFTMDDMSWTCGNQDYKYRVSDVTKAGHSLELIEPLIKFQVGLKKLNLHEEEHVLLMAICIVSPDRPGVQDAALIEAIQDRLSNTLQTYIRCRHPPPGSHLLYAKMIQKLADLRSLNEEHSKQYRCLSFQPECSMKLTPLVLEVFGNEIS
Experimental: Human LX-2 cells were grown to 50% confluence in DMEM with 10% FBS in 6-Well plates.
as §1
TGFβ signaling is the key mediator in hepatic fibrogenesis, triggering the transition of HSCs into myofibroblast-like cells and thereby stimulating synthesis of ECM proteins. Thus, TGFβ1 is produced locally in the organ as part of the fibrotic process It has been previously reported that TGFB signaling can influence the activity of VDR-dependent genes, as depicted in (FIG. 8A). In this model, TGFβ activation results in SMAD3 phosphorylation, inducing its translocation into the nucleus where it associates with the ligand bound VDR complex. Phosphorylated SMAD3 acts as a co-activator in the VDR/vitaminD3 complex enhancing the transcriptional potential of VDR on target genes. To understand the interplay between TGFB and VDR signaling pathways, the effects of TGFβ on the well characterized VDR gene target Cyp24α1 were examined.

[7] = target: T1, VDR; conditions: rat Kupffer cells, FIG. 11B
[8] = cited from earlier work
[9] = system: primary HSCs; assay: Illumina array: TGFβ1-treated primary rat HSCs with vitamin D3 (Table 4); conditions: co-treatment with TGFβ1 100 pM, vitamin D3 1 nM, 24 h
Experimental: as §2, §3
The Illumina platform described above was used to identify genome-wide effects of vitamin D3-activated VDR on TGFβ signaling in primary rat HSCs. Isolated primary HSCs were cultured on plastic tissue culture plates for 40 hours prior to treatment with or without vitamin D3 (1 nM) in the presence or absence of TGFβ1 (100 pM) for 24 hours. Cells were then harvested, total RNA extracted, and biotin labeled cRNA was prepared for hybridization to an Illumina Rat RefSeq version 1 genome array. […] The data generated from these arrays was processed using Illumina BeadStudio software to identify gene expression changes between the different samples. The vitamin D3 mediated changes on TGFβ1 signaling were identified by comparing TGFβ1 and co-treated TGFβ1/vitamin D3 samples.

Row | Compound | Expression of neutrophil and monocyte attractants [1] | Gene induction of the interleukins IL-10 and 6 [1] | VDR activation (Cyp24a1 mRNA expression) [2] | CYP24A1 expression ([3]; 100 nM (10-fold higher dose), culture activated HSCs, listed as 25(OH) vitamin D3, monohydrate) | Concentration giving maximal induction of CYP24A1 ([3]; day 2 HSCs) [nM] | Production of inflammatory and fibrogenic markers [4] | Decrease of IL-α expression ([5]; liver, CCl4 mice) | Decrease of MCP-1 expression ([5]; liver, CCl4 mice) | Decrease of TGFβ1 expression ([5]; liver, CCl4 mice) | TNF-α induction ([5]; liver, CCl4 mice) | Production of inflammatory and fibrogenic markers ([5]; mice, CCl4, 1 IU (25 ng) per gram body weight twice weekly, FIG. 9) | Concentration giving maximal enhancement of CYP24A1 ([6]; LX-2 cells, day 2) [nM] | CYP24A1 expression ([6]; culture activated (day 7) LX-2 cells) | VDR activation (Cyp24a1 mRNA expression) [7] | Levels associated with changes in calcium homeostasis ([8]; isolated reports) | Serum calcidiol with no evidence of adverse effects ([8]; requiring a supply of 250 μg (10,000 IU)) [nmol/L] | Induction of all collagen genes by TGFβ [9] | Repression of MMP10 by TGFβ [9]
1 | O=S(=O)(c1ccccc1)N(CC(F)(F)F)c1ccc(C(O)(C(F)(F)F)C(F)(F)F)cc1 [T1317] | relatively few changes | markedly decreased |  |  |  |  |  |  |  |  |  |  |  |  |  |  |  | 
2 | C=C1CC[C@H](O)C/C1=C/C=C1\CCC[C@]2(C)[C@@H]([C@H](C)CCCC(C)(C)O)CC[C@@H]12 [calcidiol, (5Z,7E)-9,10-Secocholesta-5,7,10(19)-triene-3β,25-diol monohydrate] |  |  | also activated | moderately increasing; also recorded: barely induced | 10 | reduced | about 50% | about 50% | about 50% | no induction | significantly reduced | 100 | barely induced | also activated | exceeding 500 nmol/l | < 140 |  | 
3 | C=C1CC[C@H](O)C/C1=C/C=C1\CCC[C@]2(C)[C@@H]([C@H](C)CCCC(C)C)CC[C@@H]12 [vitamin D3, reference compound] | preferentially repressed | did not alter |  |  |  |  |  |  |  |  |  |  |  |  |  |  | markedly decreased | inhibited
